{
  "source": "patent US20260027121A1",
  "about": "“LIGAND ACTING ON ADENOSINE RECEPTORS AND COMPOSITION COMPRISING SAME FOR PREVENTION, ALLEVIATION, OR TREATMENT OF OBESITYS” (FUTURE MEDICINE CO., LTD., priority 2022, published 2026)",
  "key": {"brown adipocytes [1]": {"tested_on": "brown adipocytes", "assay": "Immunoblot of PKA downstream proteins (P-HSL, P-CREB) in brown adipocytes", "assay_type": "cell-based, mouse", "procedure": "(§1) Adipocyte precursor cells capable of differentiating into brown adipocytes were isolated from mouse brown adipose tissue. Cells were cultured in Dulbecco's modified Eagle's medium (Welgene, LM001-07) containing 10% fetal bovine serum (FBS, Gibco, 16000044) and 1% Penicillin Streptomycin (Welgene, LS202-02) at 37° C. in a humidified atmosphere with 5% CO2. When the cells reached about 100% confluency, the cells were exposed to a differentiation medium supplemented with 2.5 mM isobutyl methylxanthine (IBMX, Cayman, I5879), 0.125 mM indomethacin (Cayman, 70270), 1 μM dexamethasone (Cayman), 1 μg/mL insulin (Sigma, I9278), and 1 nM triiodothyronine (T3, Cayman, 6028) for 3 days for adipogenesis. Then, the cells were maintained in a growth medium containing 1 μg/mL insulin and 1 nM triiodothyronine (T3) for 3 days.\n(§2) In the case of Western blots, the primary antibodies used for Western blots are summarized in [Table 2] above. An anti-rabbit horseradish peroxidase antibody (1:3000, Thermo Fisher, 31460) and an anti-mouse horseradish peroxidase antibody (1:3000, Jackson, 115-035-174) were used as secondary antibodies. All antibodies were diluted in a blocking buffer (5% skimmed milk or 5% bovine serum albumin in TBST). Western blot images were acquired using a Fusion Solo chemiluminescence imaging system (Vilber Lourmat) and analyzed with Evolution Capt software (version 17.03). NIH ImageJ software was used for quantification."}, "brown adipocytes [2]": {"tested_on": "brown adipocytes", "assay": "Lipolysis: glycerol and free fatty acid levels in conditioned medium", "assay_type": "cell-based, mouse", "details": "0.1 μM, 24 hours", "procedure": "as §1\nThe free fatty acid (FFA) levels in the medium were measured using an NEFA reagent (WAKO, 436-91693) according to the manufacturer's product protocol.\nGlycerol and free fatty acid (FFA) levels in a medium were measured using a glycerol reagent (Sigma Aldrich, F6428) and a NEFA reagent (WAKO, 436-91693) according to the manufacturer's product protocols."}, "brown adipocytes [3]": {"tested_on": "brown adipocytes", "assay": "Immunoblot of mitochondrial proteins and UCP1 in brown adipocytes", "assay_type": "cell-based, mouse", "procedure": "as §1, §2"}, "brown adipocytes [4]": {"tested_on": "brown adipocytes", "assay": "MitoTracker staining", "assay_type": "cell-based, mouse", "details": "0.1 μM, FIG. 4B", "procedure": "The cells were exposed to MitoTracker™ Red CMXRos (1:3000, Invitrogen, M7512) at 37° C. for 15 minutes to stain mitochondria, and then fixed in 4% paraformaldehyde (PFA, Sigma, 158127). Images were acquired with an LSM800 confocal microscope (Zeiss, Germany) and analyzed with Zen software (version 3.0)."}, "brown adipocytes [5]": {"tested_on": "brown adipocytes", "assay": "Oxygen consumption rate (XFp analyzer)", "assay_type": "cell-based, mouse", "details": "0.1 μM, 24 hours", "procedure": "Oxygen consumption rate (OCR) was measured using an XFp analyzer. Cells were cultured in XF DMEM basal medium (Agilent, 103575-100, pH 7.4) supplemented with 4 mM L-glutamine (Sigma, G8540) and 25 mM D-glucose (Sigma, G7021) at 37° C. The XFp Cell Mitochondrial Stress Test Kit (Agilent, 103010-100) was prepared and calculated sequentially with optimal final concentrations of 2.5 μM oligomycin, 0.5 μM FCCP and 0.5 μM rotenone/antimycin A and basal, maximal and proton leakage. Then, the OCR was normalized to protein concentration."}, "BAT, iWAT, and gWAT": {"tested_on": "BAT, iWAT, and gWAT", "assay": "TTC staining of adipose tissue (ex vivo electron transport activity)", "assay_type": "in vivo, mouse", "details": "mice, 1 mg·kg-1day-1 intraperitoneally, 10 days"}, "C57BL/6 male mice": {"tested_on": "C57BL/6 male mice", "assay": "Indirect calorimetry (PhenoMaster)", "assay_type": "in vivo, mouse", "details": "1 mg·kg-1day-1 intraperitoneally, 10 days", "procedure": "6-week-old C57BL/6 male mice and CIDEA reporter mice were used according to the approved protocols by Institutional Animal Care and Use Committees of Seoul National University (SNU-201107-1, SNU-201221-3) for in vivo experiments. The mice were housed under a 12 h-light/12 h-dark cycle condition with free access to a normal chow diet (NCD, Purina Lab, 38057, protein: 24.52% calories, carbohydrate: 63.07% calories, and fat: 12.41% calories) and water at 22±1° C. The mice were treated intraperitoneally with LJ-4378 (1 mg·kg-1day-1) dissolved in 0.2% DMSO (diluted in PBS) for 10 days.\nIndirect calorimetry was performed using a PhenoMaster (TSE Systems) to measure expenditure (EE), VO2, VCO2, activity, and food intake. Body components were measured by nuclear magnetic resonance scanning Echo MRI-700 (Echo Medical Systems)."}, "CIDEA reporter mice": {"tested_on": "CIDEA reporter mice", "assay": "qPCR of brown adipocyte markers in brown adipose tissue", "assay_type": "in vivo, mouse", "details": "BAT, 1 mg kg-1/day, 10 days", "procedure": "Mice were treated with vehicle (CTL), LJ-4378 (LJ, 1 mg kg-1/day), […] (CGS21680, 1 mg kg-1/day), or A3 antagonist (LJ-4433, 1 mg kg-1/day) for 10 days. (A-B) Representative bioluminescence in dorsal and lateral positions (n=3, mean±SEM, ** p<0.01, **** p<0.0001). (C) Representative ex vivo fluorescence image and quantification of fluorescence intensity of BAT and iWAT (n=3, mean±SEM, ** p<0.01, **** p<0.0001). (D) qPCR analysis of UCP1 and CIDEAM RNA expression levels of brown adipose tissue (BAT) (n=3, mean±SEM, * p<0.05, ** p<0.01, *** p<0.001).\nqPCR analysis was performed to investigate the adenosine receptor expression levels in brown adipocytes differentiated from immortalized brown adipocyte precursor cells. Primers used for the qPCR analysis are listed in the following [Table 3]."}},
  "data": [
    {"smiles": "CCCCC#Cc1nc(N)c2ncn([C@@H]3SC[C@@H](O)[C@H]3O)c2n1", "note": "[LJ-4378, 2-(6-amino-2-(hex-1-yn-1-yl)-9H-purin-9-yl)tetrahydrothiophene-3,4-diol]", "values": [
      {"measurement": "P-CREB, fold increase", "setting": "brown adipocytes [1]; 0.1 μM, 24 hours, FIG. 3D", "result": "2.32±0.05", "unit": "fold"},
      {"measurement": "P-HSL, fold increase", "setting": "brown adipocytes [1]; 0.1 μM, 24 hours, FIG. 3D", "result": "2.10±0.12", "unit": "fold"},
      {"measurement": "P-HSL (serine 660) expression level, fold increase", "setting": "brown adipocytes [1]; 10^−5, 4 hours", "result": "6.87±0.69", "unit": "fold"},
      {"measurement": "P-HSL (serine 660) expression level, fold increase", "setting": "brown adipocytes [1]; 10^−7, 4 hours", "result": "6.64±0.34", "unit": "fold"},
      {"measurement": "P-HSL (serine 660) expression level, fold increase", "setting": "brown adipocytes [1]; 10^−9 M, 4 hours", "result": "3.03±0.21", "unit": "fold"},
      {"measurement": "P-HSL (serine 660) expression level, fold increase", "setting": "brown adipocytes [1]; 10^−11 M, 4 hours", "result": "1.55±0.11", "unit": "fold"},
      {"measurement": "free fatty acid (FFA) level, fold increase", "setting": "brown adipocytes [2]; FIG. 2", "result": "1.92±0.03", "unit": "fold"},
      {"measurement": "glycerol level in conditioned medium, fold change", "setting": "brown adipocytes [2]; FIG. 3B", "result": "1.61±0.07", "unit": "fold"},
      {"measurement": "FFA level in conditioned medium, fold change", "setting": "brown adipocytes [2]; FIG. 3C", "result": "1.59±0.1", "unit": "fold"},
      {"measurement": "COXIV expression level, fold increase", "setting": "brown adipocytes [3]; 0.1 μM, 24 hours, FIG. 4A", "result": "2.18±0.15", "unit": "fold"},
      {"measurement": "UCP1 expression level, fold increase", "setting": "brown adipocytes [3]; 0.1 μM, 24 hours, FIG. 4A", "result": "2.93±0.23", "unit": "fold"},
      {"measurement": "COXIV, fold increase", "setting": "brown adipocytes [3]; 0.1 μM, 24 hours, FIG. 4D", "result": "2.53±0.08", "unit": "fold"},
      {"measurement": "MCAD, fold increase", "setting": "brown adipocytes [3]; 0.1 μM, 24 hours, FIG. 4D", "result": "4.91±0.02", "unit": "fold"},
      {"measurement": "UCP1, fold increase", "setting": "brown adipocytes [3]; 0.1 μM, 24 hours, FIG. 4D", "result": "2.67±0.38", "unit": "fold"},
      {"measurement": "ATP5A protein, fold increase", "setting": "brown adipocytes [3]; 10^−5, 48 hours", "result": "3.72±0.04", "unit": "fold"},
      {"measurement": "MCAD protein, fold increase", "setting": "brown adipocytes [3]; 10^−5, 48 hours", "result": "2.13±0.03", "unit": "fold"},
      {"measurement": "SDHB protein, fold increase", "setting": "brown adipocytes [3]; 10^−5, 48 hours", "result": "3.71±0.25", "unit": "fold"},
      {"measurement": "UQCRC2 protein, fold increase", "setting": "brown adipocytes [3]; 10^−5, 48 hours", "result": "4.02±0.08", "unit": "fold"},
      {"measurement": "ATP5A protein, fold increase", "setting": "brown adipocytes [3]; 10^−7, 48 hours", "result": "3.94±0.06", "unit": "fold"},
      {"measurement": "MCAD protein, fold increase", "setting": "brown adipocytes [3]; 10^−7, 48 hours", "result": "1.79±0.09", "unit": "fold"},
      {"measurement": "SDHB protein, fold increase", "setting": "brown adipocytes [3]; 10^−7, 48 hours", "result": "3.41±0.47", "unit": "fold"},
      {"measurement": "UQCRC2 protein, fold increase", "setting": "brown adipocytes [3]; 10^−7, 48 hours", "result": "4.21±0.13", "unit": "fold"},
      {"measurement": "ATP5A protein, fold increase", "setting": "brown adipocytes [3]; 10^−9 M, 48 hours", "result": "3.51±0.05", "unit": "fold"},
      {"measurement": "MCAD protein, fold increase", "setting": "brown adipocytes [3]; 10^−9 M, 48 hours", "result": "1.79±0.03", "unit": "fold"},
      {"measurement": "SDHB protein, fold increase", "setting": "brown adipocytes [3]; 10^−9 M, 48 hours", "result": "3.47±0.18", "unit": "fold"},
      {"measurement": "UQCRC2 protein, fold increase", "setting": "brown adipocytes [3]; 10^−9 M, 48 hours", "result": 3.96, "unit": "fold"},
      {"measurement": "ATP5A protein, fold increase", "setting": "brown adipocytes [3]; 10^−11 M, 48 hours", "result": "2.20±0.08", "unit": "fold"},
      {"measurement": "MCAD protein, fold increase", "setting": "brown adipocytes [3]; 10^−11 M, 48 hours", "result": "1.53±0.03", "unit": "fold"},
      {"measurement": "SDHB protein, fold increase", "setting": "brown adipocytes [3]; 10^−11 M, 48 hours", "result": "1.87±0.28", "unit": "fold"},
      {"measurement": "UQCRC2 protein, fold increase", "setting": "brown adipocytes [3]; 10^−11 M, 48 hours", "result": "2.15±0.03", "unit": "fold"},
      {"measurement": "mitochondrial membrane potential (MitoTracker staining), fold increase", "setting": "brown adipocytes [4]", "result": "2.12±0.06", "unit": "fold"},
      {"measurement": "increase of OCR related to ATP production", "setting": "brown adipocytes [5]", "result": 29.3, "unit": "%"},
      {"measurement": "increase of OCR related to basal", "setting": "brown adipocytes [5]", "result": 30.5, "unit": "%"},
      {"measurement": "increase of OCR related to maximal", "setting": "brown adipocytes [5]", "result": 49.1, "unit": "%"},
      {"measurement": "mitochondrial activity (TTC staining), fold increase in BAT", "setting": "BAT, iWAT, and gWAT", "result": "2.86±0.24", "unit": "fold"},
      {"measurement": "mitochondrial activity (TTC staining), fold increase in gWAT", "setting": "BAT, iWAT, and gWAT", "result": "1.72±0.16", "unit": "fold"},
      {"measurement": "mitochondrial activity (TTC staining), fold increase in iWAT", "setting": "BAT, iWAT, and gWAT", "result": "2.07±0.17", "unit": "fold"},
      {"measurement": "increase of energy expenditure", "setting": "C57BL/6 male mice", "result": 17.0, "unit": "%"},
      {"measurement": "increase of oxygen consumption", "setting": "C57BL/6 male mice", "result": 17.8, "unit": "%"},
      {"measurement": "Cidea mRNA level, fold increase", "setting": "CIDEA reporter mice", "result": "1.72±0.06", "unit": "fold"},
      {"measurement": "Ucp1 mRNA level, fold increase", "setting": "CIDEA reporter mice", "result": "2.13±0.21", "unit": "fold"}
    ]}
  ]
}
